Test results: patent US20240165185A1, “COMBINATION OF A MYRTLE EXTRACT AND A TRIPTERYGIUM WILFORDII EXTRACT FOR COMBATING C. ACNES-INDUCED INFLAMMATION” (priority 2021, published 2024)

Legend:
Assay type in all cases: cell-based
[1] = test system: production of IL-6 by dendritic cells derived from monocytes; test: Inhibition of IL-6 production by monocyte-derived dendritic cells stimulated with C. acnes membranes; conditions: Homo sapiens, Dendritic cell; C. acnes phylotype IA1 membranes, 24 hours stimulation; dexamethasone 300 ng/ml, myrtle extract 10 μg/ml, Trip extract 25 μg/ml, combination 10 and 25 μg/ml; mean of 3 experiments
Description: (§1) The experiments were performed on co-cultures of immature dendritic cells derived from monocytes, at a final concentration of 1.10^5 cells/ml/well and biofilms or membranes of C. acnes of phylotype IA1 . The monocytes are purified from human blood by negative selection (The EasySep™ Human Monocyte Enrichment Kit, StemCell).
(§2) On Day 0, the monocytes are incubated in a differentiation medium (Gibco Roswell Park Memorial Institute (RPMI), 10% v/v foetal bovine serum (FBS) that has been decomplemented (heated to 56° C. for 30 minutes), 50 ng/ml IL-4 and 100 ng/ml Recombinant Human Granulocyte Macrophage Colony-Stimulating Factor (GM-CSF)). On the 3rd day of culture, half of the medium is replaced by fresh medium. On day 6, the immature dendritic cells are characterised by flow cytometry and stimulated by a biofilm or membranes of C. acnes.
(§3) The membranes of C. acnes are purchased from the Icare laboratory (Saint-Beauzire, France).
(§4) The stimulation of the immature dendritic cells derived from monocytes by the membranes of C. acnes is carried out with a dilution to 1/20 of a solution of membranes in the culture medium (RPMI+10% v/v FBS) at a concentration of 0.15 mg/ml.
(§5) The myrtle extract used in this study is prepared according to example 1. This extract is solubilised and stored at […] in ethanol (10 mg of dry extract prepared according to example 1, in 1 ml of ethanol). […]

[2] = test system: production of IL-8 by dendritic cells derived from monocytes; test: Inhibition of IL-8 production by monocyte-derived dendritic cells stimulated with C. acnes membranes; conditions: Homo sapiens, Dendritic cell; C. acnes phylotype IA1 membranes, 24 hours stimulation; dexamethasone 300 ng/ml, myrtle extract 10 μg/ml, Trip extract 25 μg/ml, combination 10 and 25 μg/ml; mean of 3 experiments
Description: as §1, §2, §3
The stimulation of the immature dendritic cells derived from monocytes by the membranes of C. acnes is carried out with a dilution to 1/20 of a solution of membranes in the culture medium (RPMI+10% v/v FBS) at a concentration of 0.15 mg/ml. […]
Several cytokines are evaluated in this study. IL-6, IL-8, IL-10, and IL-12p40; these cytokines are quantified in multiplex using the Luminex technology (Bioplex 200, Biorad).

[3] = test system: production of IL-10 by dendritic cells derived from monocytes; test: Inhibition of IL-10 production by monocyte-derived dendritic cells stimulated with C. acnes membranes; conditions: Homo sapiens, Dendritic cell; C. acnes phylotype IA1 membranes, 24 hours stimulation; dexamethasone 300 ng/ml, myrtle extract 10 μg/ml, Trip extract 25 μg/ml, combination 10 and 25 μg/ml; mean of 3 experiments
Description: as §1, §2, §3, §4, §5

[4] = test system: production of IL-12p40 by dendritic cells derived from monocytes; test: Inhibition of IL-12p40 production by monocyte-derived dendritic cells stimulated with C. acnes membranes; conditions: Homo sapiens, Dendritic cell; C. acnes phylotype IA1 membranes, 24 hours stimulation; dexamethasone 300 ng/ml, myrtle extract 10 μg/ml, Trip extract 25 μg/ml, combination 10 and 25 μg/ml; mean of 3 experiments
Description: as §1, §2, §3, §4, §5

[5] = test system: production of IL-10 by dendritic cells derived from monocytes; test: Inhibition of IL-10 production by monocyte-derived dendritic cells stimulated with biofilm of C. acnes; conditions: Homo sapiens, Dendritic cell; biofilm of C. acnes phylotype IA1, MOI close to 100, 24 hours stimulation; dexamethasone 300 ng/ml, combination 10 and 25 μg/ml; mean of 3 experiments
Description: as §1, §2
The myrtle extract used in this study is prepared according to example 1. This extract is solubilised and stored at […] in ethanol (10 mg of dry extract prepared according to example 1, in 1 ml of ethanol). The concentration tested is 10 μg/ml.
The extract of Tripterygium wilfordii (Trip extract below) used in this study is prepared according to example 2.

`C[C@@H]1C[C@H]2[C@@H]3CCC4=CC(=O)C=C[C@]4(C)[C@@]3(F)[C@@H](O)C[C@]2(C)[C@@]1(O)C(=O)CO` [Dexamethasone, dexamethasone] showed an inhibition at 0.3 µg/mL [1] of 76.8%, an inhibition at 0.3 µg/mL [2] of 47.6% and an inhibition at 0.3 µg/mL [3] of 41.7%. For the same compound, the inhibition at 0.3 µg/mL [4] was 79.5% and the inhibition at 0.3 µg/mL [5] was 38.6%.
